Results taken from US9434978B2, “Culture medium for screening or enrichment of methicillin-resistant S. aureus” (BIO-RAD INNOVATIONS, priority 2009, dated 2016).

System: MSSA
Test: Specificity of the medium on the MSSA strains
Assay type: cell-based, Staphylococcus aureus
Conditions: 8 MSSA strains; for number of MSSA strains that grew at 24 h after stress: plates 3 days at 37° C. before inoculation
From the text: The basal medium comprises peptone, salts, antifungal and antibacterial agents to inhibit the growth of Gram negative bacteria and fungi. The basal medium is chosen to promote the growth of staphylococci, in particular Staphylococcus aureus.
Several strains of MRSA (methicillin resistant S. aureus) and MSSA (methicillin susceptible S. aureus) have been chosen from a collection of strains. Strains were cultivated first on a non selective medium. The colonies are used to perform a “heavy inoculum or HI”, corresponding to approximately 10^8 bacteria/mL inoculated as a spot on a small portion of the plate, and a “light inoculum or LI”, corresponding to approximately 10^5 bacteria/mL streaked on a large portion of the plate. Plates were incubated for 48 h at 35-37° C. The reading was performed at 24 and 48 h of incubation time.
Abbreviations and legends to the Tables: • cefotetan (CTT) • ceftriaxone (CRO) • cefuroxime (CXM) • cefsulodin (CFS), • Cefepime (FEP) • Cefoperazone (CFP) • cefpodoxime (CPD) • moxalactam (MOX) • cefoxitin (FOX) • cefmetazole (CMT) • ceftiofur (XLN) • G: growth (if nothing else is written, “G” means growth with HI and LI at 24 h); Imp G: heavy growth; AG: absence of growth; cfu: colony forming unit; μcfu: pinpoint colonies; SENS: Sensitivity (%); SPE: Specificity (%); MRSA: methicillin-resistant Staphylococcus aureus; MSSA: methicillin-sensitive Staphylococcus aureus; MRSE: methicillin-resistant Staphylococcus epidermidis; MSSE: methicillin-sensitive Staphylococcus epidermidis; Results
When two cephalosporins are added, the stability of the formula is increased. Due to the fact that the molecules are unstable, growth of MSSA often appears after stress. The inventors have mimicked the stress due to transportation of the Petri dishes to the customer's lab, in summer, by placing the plates for 3 days at 37° C. before inoculation and incubation 24 or 48 h. The basal medium composition was the same as described in Example 1. Abbreviations have the same meaning.

Compound	number of MSSA strains that grew at 24 h after stress	number of MSSA strains able to grow at 24 h (plates not submitted to stress)
CO/N=C(\C(=O)N[C@@H]1C(=O)N2C(C(=O)O)=C(CSc3nc(=O)c(=O)[nH]n3C)CS[C@H]12)c1csc(N)n1 [CRO, ceftriaxone]	four	one
CO[C@@]1(NC(=O)Cc2cccs2)C(=O)N2C(C(=O)O)=C(COC(N)=O)CS[C@@H]21 [FOX, cefoxitin]	4	–
CO[C@@]1(NC(=O)C(C(=O)O)c2ccc(O)cc2)C(=O)N2C(C(=O)O)=C(CSc3nnnn3C)CO[C@@H]21 (stereo partly shown) [MOX, moxalactam]	4	–
